# Patent US9187397B2 (STC.UNM, priority 2004, dated 2015)
# Entries after “also recorded” stand apart in the source; their conditions may differ. Where two headings read alike, the source gives them in different places.
# What was measured:
# [1] = Total Radical-trapping Anti-oxidant Parameter assay (TRAP assay); design: key to TRAP: active as an antioxidant (+); conditions: for TRAP: antioxidant activity; for activity in the TRAP assay: compared with curcumin
# Experimental: This assay is also known as the Total radical-trapping anti-oxidant parameter assay (TRAP assay). For the TRAP assay (Re et al., Free Rad. Biol. […] The turquoise colored reaction was allowed to stabilize for 5 min and the absorbance monitored on a Perkin Elmer UV/Vis Lambda 2S. […] The following FIGS. 2A-2C) show the analogs active in the TRAP assay.
# [2] = Ferric Reducing/Anti-oxidant Power assay (FRAP assay); design: key to FRAP: active as an antioxidant (+); conditions: for FRAP: antioxidant activity; for activity in the FRAP assay: compared with curcumin
# Experimental: Anti-oxidant activity was also measured in the Ferric reducing/anti-oxidant power assay (FRAP assay) in which the analogs are reacted with a ferric tripyridyltriazine complex. For the FRAP assay (Benzie et al., Meth. Enzymol. 1999, 299, 15-27), the ferric complex was prepared at room temperature by reaction of ferric chloride (16.7 mM) and 2,4,6-tripyridyl-s-triazine (8.33 mM) in acetate buffer (0.25 M) to pH 3.6. The FRAP reagent was used immediately after preparation. […] The reaction was mixed by vortexing, allowed to stabilize for 5 min and the absorbance recorded on a Perkin Elmer UV/Vis Lambda 2S. […] The synthetic analog of α-tocopherol (vitamin E), Trolox, was used as a reference standard (10 μM in ethanol).
# The second assay used, the FRAP assay, determines the analogs abilities to reduce a Fe(III) tripyridyltriazine complex to a Fe(II) tripyridyltriazine complex. The following FIGS. 3A-3C) show analogs active in the FRAP assay.
# NF-κB = NF-κB luciferase reporter cellular assay (293T/NF-κB-luc, TNFα-stimulated); type: cell-based, human; conditions: for IC50: Homo sapiens, HEK-293T; for inhibition of the activation of NF-κB by TNFα (screen): 10 μM, compared with curcumin
# Experimental: The cell line is derived from human 293T embryonic kidney cells expressing the large T antigen containing a chromosomal integration of a luciferase reporter construct regulated by 6 copies of the NF-κB response element (Panomics, Inc.). This stable clonal cell line is obtained by co-transfection of pNF-κB-luc and pTK-hyg containing plasmids followed by the addition of hygromycin (200 μg/ml) to maintain cell selection.
# The cell line was grown in a humidified atmosphere at 37° C. in 5% CO2/95% air and maintained in Dulbecco's Modified Eagle's Medium (DMEM-high glucose containing 4 mM glutamine) containing fetal bovine serum (FBS, 10%), sodium pyruvate (1 mM), penicillin (100 units/ml), streptomycin (100 μg/ml) and hygromycin (100 μg/m) to maintain cell selection (Gibco/Invitrogen).
# The 293T/NF-κB-luc cells were re-plated 24 hr prior to treatment, into 24-well cell culture plates in media without hygromycin, to prevent it from interfering with the assay. The cells were then allowed to grow and attach, to the wells, for 24 hr in a humidified atmosphere at 37° C. in 5% CO2/95% air. […] The cells then were placed again in a humidified atmosphere at 37° C. in 5% CO2/95% air for 7 hr. Plate wells were gently washed with PBS, pH 7.4, and lysed with passive lysis buffer (1×, 100 μl, Promega). The subsequent chemiluminescent lysates were analyzed with the Luciferase Assay System (Promega) utilizing a TD-20/20 luminometer. The relative light units (photons) were determined by the addition of firefly luciferase substrate (75 μl) to cell lysate (10 μl). The light units were then normalized to the amount of protein in the well (mg/ml) with BCA™ Protein Assay Kit (Pierce) and standardized to percent of control (TNFα).
# This assay utilized a commercially available cell line (Panomics 293T-luc cellular assay) developed for screening inhibitors of NF-κB. This cell line is stably transfected with a luciferase reporter controlled by an NF-κB dependent promoter. The cell is stimulated with tumor necrosis factor alpha (TNFα) which activates NF-κB. NF-κB then binds to one of six promoter regions on the cell's DNA leading to the production of a luciferase enzyme. Luciferin is added to the cell lysates and the luciferase enzyme catalyzes a cleavage of luciferin leading to the emission of light.
# This cell line was developed by Panomics for screening potential inhibitors of NF-κB. Cells are stimulated with TNF-α to express luciferase, whose activity is monitored in a chemiluminometer.
# An NF-κB reporter stable cell line from human 293T embryonic kidney cells (293T/NFκB-luc) (Panomics) was grown in a humidified atmosphere at 37° C. in 5% CO2/95% air. The cells were maintained in Dulbecco's Modified Eagle's Medium (DMEM—high glucose containing 4 mM glutamine) supplemented with 10% fetal bovine serum (FBS), 1 mM sodium pyruvate, 100 units/ml penicillin, 100 μg/m streptomycin and 100 μg/ml hygromycin (Gibco/Invitrogen, Carlsbad, Calif.)) to maintain cell selection. One day prior to treatment, the 293T/NFκB-luc cells were plated into 24-well cell culture plates (Costar) at approximately 70% confluency in the above media without hygromycin. The following day cells were fed fresh media 1 hour prior to treatment. […] The cells were placed again in a humidified atmosphere at 37° C. in 5% CO2/95% air for 7 hours. Plate wells were gently washed with phosphate buffered saline, pH 7.4, and lysed with 1× passive lysis buffer (Promega). The subsequent lysates were analyzed with the Luciferase Assay System (Promega) utilizing a TD-20/20 luminometer (Turner Designs). The firefly luciferase relative light units were normalized to protein (mg/ml) with BCATM Protein Assay Kit (Pierce) and standardized to TNF-α control.
# AP-1 = AP-1 luciferase reporter cellular assay (293/AP1-luc, PMA-stimulated); type: cell-based, human; conditions: for activity in the AP-1 cellular assay (screen): 15 μM, compared with curcumin; for IC50: Homo sapiens
# Experimental: This cell line is obtained by co-transfection of pAP1-luc and pTK-hyg containing plasmids followed by the addition of hygromycin (200 μg/ml) to maintain cell selection.
# After 24 hr, the cells had reached approximately 60% confluency. […] Plate wells were gently washed with PBS, pH 7.4, and lysed with passive lysis buffer (1×, 100 μl, Promega). The subsequent chemiluminescent lysates were analyzed with the Luciferase Assay System (Promega) utilizing a TD-20/20 luminometer. The relative light units (photons) were determined by the addition of firefly luciferase substrate (75 μl) to cell lysate (10 μl). The light units were then normalized to the amount of protein in the well (mg/ml) with BCA™ Protein Assay Kit (Pierce) and standardized to percent of control (PMA).
# This cell line is stably transfected with a luciferase reporter controlled by an AP-1 dependent promoter. The cell is stimulated with phorbol ester which activates AP-1. AP-1 then binds to one of three promoter regions on the cells DNA leading to the production of a luciferase enzyme. Luciferin is added to the cell lysates and the luciferase enzyme catalyzes a cleavage of luciferin leading to the emission of light.
# [3] = inhibition of TNFα-induced NF-κB activation, Table 10, read-out: NF-κB IC50
# [4] = inhibition of PMA-induced AP-1 activation, 293/AP1-luc cells, Table 10, read-out: AP-1 IC50
# [5] = inhibition of TNFα-induced NF-κB activation, 293T/NF-κB-luc cells, Table 5, read-out: IC50
# [6] = inhibition of TNF-α-induced NF-κB activation, Panomics 293T/NFκB-luc, second Table 12, read-out: IC50
structure (smiles),measurement,setting,value
COc1cc(/C=C/C(=O)/C=C(O)/C=C/c2ccc(O)c(OC)c2)ccc1O [3a],TRAP,[1]; Table 10,+
same,FRAP,[2]; Table 10,+
same,IC50,NF-κB; [3],8.2 µM
COc1ccc(/C=C/C(=O)/C=C(O)/C=C/c2ccc(OC)c(O)c2)cc1O [3h],activity in the TRAP assay,[1]; 10 μM in ethanol,more active than curcumin
COc1cc(CCC(=O)/C=C(\O)CCc2ccc(O)c(OC)c2)ccc1O [13a],activity in the TRAP assay,[1]; 10 μM in ethanol,more active than curcumin
same,activity in the FRAP assay,[2]; 10 μM in ethanol,potent antioxidant activity
COc1cc(CCC(=O)C(C)=C(O)CCc2ccc(O)c(OC)c2)ccc1O [14a],activity in the TRAP assay,[1]; 10 μM in ethanol,more active than curcumin
same,inhibition of the activation of NF-κB by TNFα (screen),NF-κB,more active than curcumin
COc1cc(CCC(=O)C(Cc2ccccc2)=C(O)CCc2ccc(O)c(OC)c2)ccc1O [15a],activity in the TRAP assay,[1]; 10 μM in ethanol,more active than curcumin
COc1cc(/C=C/C(=O)/C=C/c2ccc(O)c(OC)c2)ccc1O [20a],inhibition of the activation of NF-κB by TNFα (screen),NF-κB,more active than curcumin
O=C(/C=C/c1ccc(O)c(O)c1)/C=C/c1ccc(O)c(O)c1 [20af],activity in the TRAP assay,[1]; 10 μM in ethanol,more active than curcumin
same,activity in the FRAP assay,[2]; 10 μM in ethanol,more active than curcumin
COc1cc(/C=C/C(=O)/C=C/c2ccc(OC(C)=O)c(OC)c2)ccc1OC(C)=O [20ag],activity in the AP-1 cellular assay (screen),AP-1,more active than curcumin
same,IC50,AP-1; [4],8.3 µM
same,FRAP,"[2]; 10 μM in ethanol, Table 5",+
same,FRAP,[2]; Table 10,+
same,inhibition of the activation of NF-κB by TNFα (screen),NF-κB,more active than curcumin
same,IC50,NF-κB; [5],5.4 µM
same,IC50,NF-κB; [3],5.4 µM
COc1ccccc1/C=C/C(=O)/C=C/c1ccccc1OC [20c],activity in the AP-1 cellular assay (screen),AP-1,more active than curcumin
COc1cccc(/C=C/C(=O)/C=C/c2cccc(OC)c2OC)c1OC [20d],activity in the AP-1 cellular assay (screen),AP-1,more active than curcumin
COc1cccc(OC)c1/C=C/C(=O)/C=C/c1c(OC)cccc1OC [20l],activity in the AP-1 cellular assay (screen),AP-1,more active than curcumin
COc1ccc(OC)c(/C=C/C(=O)/C=C/c2cc(OC)ccc2OC)c1 [20m],activity in the AP-1 cellular assay (screen),AP-1,more active than curcumin
same,IC50,AP-1; [4],1.4 µM
same,inhibition of the activation of NF-κB by TNFα (screen),NF-κB,more active than curcumin
same,IC50,NF-κB; [5],6.4 µM
same,IC50,NF-κB; [3],6.4 µM
COc1cc(/C=C/C(=O)/C=C/c2cc(OC)cc(OC)c2)cc(OC)c1 [20o],activity in the AP-1 cellular assay (screen),AP-1,more active than curcumin
same,inhibition of the activation of NF-κB by TNFα (screen),NF-κB,more active than curcumin
O=C(/C=C/c1ccccc1O)/C=C/c1ccccc1O [20q],activity in the AP-1 cellular assay (screen),AP-1,more active than curcumin
same,IC50,AP-1; [4],11.7 µM
same,activity in the TRAP assay,[1]; 10 μM in ethanol,more active than curcumin
same,TRAP,"[1]; 10 μM in ethanol, Table 5",+
same,TRAP,[1]; Table 10,+
same,inhibition of the activation of NF-κB by TNFα (screen),NF-κB,more active than curcumin
O=C(/C=C/c1cccc(C(F)(F)F)c1)/C=C/c1cccc(C(F)(F)F)c1 [20v],inhibition of the activation of NF-κB by TNFα (screen),NF-κB,more active than curcumin
O=C(/C=C/c1ccccc1C(F)(F)F)/C=C/c1ccccc1C(F)(F)F [20w],activity in the AP-1 cellular assay (screen),AP-1,more active than curcumin
same,inhibition of the activation of NF-κB by TNFα (screen),NF-κB,more active than curcumin
COc1cc(/C=C/C(C)=O)ccc1O [35a],activity in the FRAP assay,[2]; 10 μM in ethanol,active
same,inhibition of the activation of NF-κB by TNFα (screen),NF-κB,more active than curcumin
CC(=O)C=Cc1ccccc1O [35q],activity in the AP-1 cellular assay (screen),AP-1,Active
COc1cc(/C=C2\CCC/C(=C\c3ccc(O)c(OC)c3)C2=O)ccc1O [38a],activity in the AP-1 cellular assay (screen),AP-1,more active than curcumin
same,IC50,"AP-1; AP1, read-out: AP-1 IC50 (μM)",7.3 µM
same,TRAP,"[1]; 10 μM in ethanol, Table 5",+
same,TRAP,[1]; Table 10,+
same,FRAP,"[2]; 10 μM in ethanol, Table 5",+
same,FRAP,[2]; Table 10,+
O=C(C1OC1c1ccccc1)C1OC1c1ccccc1 (stereo not drawn) [42b],inhibition of the activation of NF-κB by TNFα (screen),NF-κB,activity comparable to curcumin
O=C(O)c1ccc(C(=O)/C=C/c2ccccc2)cc1 [46ad],activity in the AP-1 cellular assay (screen),AP-1,Active
same,activity in the FRAP assay,[2]; 10 μM in ethanol,active
N#Cc1ccc(C(=O)/C=C/c2ccccc2)cc1 [46al],activity in the AP-1 cellular assay (screen),AP-1,Active
COc1cc(/C=C/C(=O)c2ccccc2)ccc1O [48a],activity in the AP-1 cellular assay (screen),AP-1,most active
same,activity in the FRAP assay,[2]; 10 μM in ethanol,active
CN1C(c2ccccc2)CC(=O)CC1c1ccccc1 (stereo not drawn) [52b],inhibition of the activation of NF-κB by TNFα (screen),NF-κB,more active than curcumin; also recorded: activity comparable to curcumin
COc1cc(/C=C/C(=O)/C(C)=C(O)/C=C/c2ccc(O)c(OC)c2)ccc1O [Compound 2],IC50,NF-κB; [6],6.7 ± 1.2 µM
O=C(/C=C/c1cccnc1)/C=C/c1cccnc1 [Compound 3],IC50,NF-κB; [6],3.4 ± 0.2 µM
O=C(/C=C/c1ccccc1C(F)(F)F)/C=C/c1ccccc1C(F)(F)F [Compound 5],IC50,NF-κB; [6],5 ± 0.3 µM
